Source: patent US6896895B2, “Carotenoid esters, carotenoid-enriched feeds, and methods of pigmenting foods and foodstuffs” (DSM IP Assets B.V., priority 2000, dated 2005)

Tests used:
[1] = test system: skin and shanks of broilers; assay: Reflectance colorimetry and visual classification of skin and shanks of broilers; assay type: in vivo, broiler chickens (Ross 308, Ross 508); set-up: key to Shanks Visual Classification / Skin Visual Classification: −; (+); +; ++ = good color; o = orange; conditions: dry carcasses, average over doses, Table 6
Description: (§1) Pigmentation efficacy was assessed in egg yolk, in the back skin of the broiler carcass, and in broiler shanks by reflectance colorimetry accompanied by visual scoring (Roche Colour Fan). The deposition of the ethyl-β-apo-8′-carotenoate (control) and the other carotenoid esters was determined in egg yolk and in the broiler back skin. In addition, the carotenoid levels in plasma and abdominal fat were measured.
(§2) The trials were carried out using chickens of the type Ross 308 (trials MC-24/98 and MC-02/99) and Ross 508 (trials MC-11/99, MC-16/99, MC-24/99, and MC-03/00) (Couvir de la Bohardière, F-49290 Saint Laurent de la Plaine). One-day old broiler chickens, separated by sex, were divided by weight into experimental groups of ten animals each and reared in floor pens littered with wood shavings. The chickens were fed a low carotenoid basal grower diet until day 22 (trials MC-24/98, MC-02/99, and MC-11/99) or until day 15 (trials MC-16/99, MC-24/99, and MC-03/00). The low carotenoid basal grower diet contained less than 2 mg total xanthophylls per kg of feed, and its composition is described in Table 2. For the subsequent experimental period of three weeks, the birds received the basal diet supplemented with an appropriate pigment. The feed was given in the form of crumbled pellets during the first week and as pellets thereafter. The animals had unrestricted access to feed and water. A given treatment involved one group of male and one group of female chickens. Each group of chickens was weighed at day 22 (trials MC-24/98, MC-02/99, and MC-11/99) or day 15 (trials MC-16/99, MC-24/99, and MC-03/00) and on day 43. On day 42, five chickens per group were selected at random, labelled, and blood samples were taken from the jugular vein. At the end of the experiment (day 44) the animals were slaughtered in a commercial slaughterhouse (Freyburger, Dannemarie, France). The following day, the color of the skin (hind back of carcasses) and the shanks of the labelled chicken were measured by reflectance colorimetry (Minolta CR 200 apparatus, CIE-Lab system). Samples of the dorsal skin and abdominal fat were obtained, pooled for each experimental group, and the carotenoid concentration was determined. The concentration of carotenoids in feed, plasma, skin, and abdominal fat was determined by standard procedures as described after Tables 1 and 2.
The color of broiler skin and shanks was measured using a tristimulus Minolta CR-300 Chromameter with diffuse D65-illumination and a 0° viewing angle. The color of the skin was read at three different points on the back of the dry broiler carcasses and average values of the triple measurements were recorded. The color of shanks was measured using single measurements at the ball between the toes.
(§3) The color data were expressed as CIE L*a*b*-values including h*(hue) and C* (chroma). The values given in the tables per treatment and trial represent averages of color measurements of four egg yolk pools, ten broiler back skins, or ten broiler shanks (5 males and 5 females).

[2] = Carotenoid ester content in plasma, back skin and abdominal fat of broilers (HPLC); assay type: in vivo, broiler chickens (Ross 308, Ross 508); conditions: average over doses, Table 4
Description: as §1, §2
The content of the various carotenoid esters in feed was determined according to the method of Schierle, et al. (J. Schierle , N. Faccin, V. Riegert, Analytical Methods for Vitamins and Carotenoids in Feed, Revised supplement: Determination of Stabilized Apocarotenoic Ester and Canthaxanthin in Premixes and Feeds, Roche publication no. 50771 (1995), publicly available from. F. Hoffmann-La Roche Ltd., CH-4070 Basel). This method was modified in that the mobile phase of the normal-phase HPLC contained 0.5% instead of 7% acetone in n-hexane, improving the separation of the E/Z-isomers of the carotenoid esters. Peaks were related to all-E- and Z-isomers of the various carotenoid esters by chromatography of heat-isomerized solutions of the respective reference substances in n-hexane. The HPLC system was calibrated with the all-E-isomer of ethyl β-apo-8′-carotenoate. The response factor of the various derivatives was deduced from that of ethyl β-apo-8′-carotenoate taking into account the respective molecular weight. The content of the Z-isomer fractions was calculated based on the response of the all-E-isomer and using a correction factor of 1.4 to account for the lower specific absorbance of the Z-isomers.
(§4) The HPLC-system for in-feed analysis was also used to quantify the carotenoid esters in egg yolk, broiler tissues, and broiler plasma, but the extraction procedure was different for the various matrices.
For plasma extraction, 1.0 g of the well-mixed plasma sample was introduced into a 10 ml test tube with 1.0 ml of demineralized water and 4.0 ml of ethanol, and the contents mixed on a Vortex shaker. […]

[3] = test system: egg yolk; assay: Egg yolk colour: reflectance colorimetry and Roche Yolk Colour Fan; assay type: in vivo, laying hens (ISA Brown); conditions: egg yolk, laying hens, 5.0 mg/kg feed
Description: as §1
The trials were carried out following the standard experimental design used for egg yolk pigmentation trials at the Roche Research Center for Animal Nutrition (CRNA, F-68305 Village-Neuf, France). Each year in February the pigmentation trials are started with a new flock of layers. At the beginning of the trials the age of the laying hens (192 birds, type ‘ISA Brown’) were as follows:
(§5) Preceding the trials the hens were fed a low carotenoid basal diet (produced at the CRNA) without carotenoid supplementation for at least 28 days. During the trials, the control group received the low carotenoid basal diet containing less than 2 mg total xanthophylls per kg of feed. The other animals were fed this diet supplemented with the appropriate pigments for three weeks. The diet was given to the animals ad libitum in mash form. The hens had free access to tap water. Beside the unsupplemented control treatment, treatments were carried out involving the provision of supplemented feed, the results of these treatments being presented in Tables 7-9.
Egg yolk color was assessed as described by Steinberg, et al. (Arch. Geflügelk 64 (4), 180-187 (2000)). The yolks were manually separated from the whites of the eggs. The isolated yolks of three to six eggs were combined, weighed, and stirred with a glass rod until the color appeared homogeneous. The color hue was visually scored using the Roche Yolk Colour Fan (RYCF, version 1993). An aliquot of the pooled egg yolks was transferred into a glass cuvette yielding an approximately 2 cm thick layer. The color was then measured by means of a Dr. Lange Xeno Color LS 100 spectro-colorimeter with diffuse D65-illumination and a 8° viewing angle.
as §3

[4] = Carotenoid ester content and deposition rate in egg yolk of laying hens (HPLC); assay type: in vivo, laying hens (ISA Brown); conditions: egg yolk; for Deposition Rate Target Values % of Controls / Ethyl β-apo-8′-carotenoate Equivalents % of Controls: Table 8; for Deposition Rate % of Controls: Table 10
Description: as §1
Each year in February the pigmentation trials are started with a new flock of layers.
as §5, with “water.” for “water. Beside the unsupplemented control treatment, treatments were carried out involving the provision of supplemented feed, the results of these treatments being presented in Tables 7-9.”
Peaks were related to all-E- and Z-isomers of the various carotenoid esters by chromatography of heat-isomerized solutions of the respective reference substances in n-hexane. The HPLC system was calibrated with the all-E-isomer of ethyl β-apo-8′-carotenoate. The response factor of the various derivatives was deduced from that of ethyl β-apo-8′-carotenoate taking into account the respective molecular weight. The content of the Z-isomer fractions was calculated based on the response of the all-E-isomer and using a correction factor of 1.4 to account for the lower specific absorbance of the Z-isomers.
as §4
For the extraction of egg yolk, 10 g of pooled and homogenised yolk were mixed with 10 ml of demineralized water using a dispersion instrument (Polytron). 1.0 g of diluted egg yolk was introduced into a 10 ml test tube with 1.0 ml of demineralized water and 2.0 ml of ethanol, and the contents were mixed on a Vortex shaker. After addition of 4.0 ml of n-hexane, the mixture was further treated as described for plasma.

| SMILES | Shanks Chroma C*ab % of Controls [1] [%] | Shanks Color Hue h*ab % of Controls [1] [%] | Shanks Visual Classification [1] | Skin Chroma C*ab % of Controls [1] [%] | Skin Color Hue h*ab % of Controls [1] [%] | Skin Visual Classification [1] | Analytical Content as Equivalent of Ethyl β-apo-8′-carotenoate in % of control Fat [2] [%] | Analytical Content as Equivalent of Ethyl β-apo-8′-carotenoate in % of control Plasma [2] [%] | Analytical Content as Equivalent of Ethyl β-apo-8′-carotenoate in % of control Skin [2] [%] | further results |
| --- | --- | --- | --- | --- | --- | --- | --- | --- | --- | --- |
| CC(C=CC=C(C)C=CC1=C(C)CCCC1(C)C)=CC=CC=C(C)C=CC=C(C)C(=O)OCCC(C)C [(6), isoamyl beta-apo-8′-carotenoate] | 86 | 101 | (+) | 89 | 99 | (+) | 35 | 62 | 38 | Color Fan Value % of Controls ([3]; trial H-18/99, Table 8): 116%; Chroma C*ab % of Controls ([3]; trial H-18/99, Table 10): 105%; Color Fan Value % of Controls ([3]; trial H-18/99, Table 10): 116%; Color Hue h*ab % of Controls ([3]; trial H-18/99, Table 10): 101%; Deposition Rate Target Values % of Controls ([4]; trial H-18/99, 5.0 mg/kg feed): 90%; Ethyl β-apo-8′-carotenoate Equivalents % of Controls ([4]; trial H-18/99, 5.0 mg/kg feed): 80%; Deposition Rate % of Controls ([4]; trial H-18/99, 5.0 mg/kg feed): 90% |
| CCC(C)COC(=O)C(C)=CC=CC(C)=CC=CC=C(C)C=CC=C(C)C=CC1=C(C)CCCC1(C)C (stereo not drawn) [(7), 2-methyl-butyl beta-apo-8′-carotenoate] | 85 | 101 | (+) | 80 | 94 | (+) | 45 | 62 | 40 | Color Fan Value % of Controls ([3]; trial H-25/99, Table 8): 108%; Chroma C*ab % of Controls ([3]; trial H-25/99, Table 10): 87%; Color Fan Value % of Controls ([3]; trial H-25/99, Table 10): 108%; Color Hue h*ab % of Controls ([3]; trial H-25/99, Table 10): 106%; Deposition Rate Target Values % of Controls ([4]; trial H-25/99, 5.0 mg/kg feed): 95%; Ethyl β-apo-8′-carotenoate Equivalents % of Controls ([4]; trial H-25/99, 5.0 mg/kg feed): 86%; Deposition Rate % of Controls ([4]; trial H-25/99, 5.0 mg/kg feed): 95% |
